How the values were obtained:
Assay type in all cases: cell-based
CDK4 = target: T1, CDK4 (Homo sapiens, UniProt P11802); test: CDK4 degradation (DC50, Dmax)
T1 construct: endogenous in cells

CDK6 = target: T2, CDK6 (Homo sapiens, UniProt Q00534); test: CDK6 degradation (DC50, Dmax)
T2 construct: endogenous in cells

[1] = system: mantle cell lymphoma cell (Mino or JeKo-1); test: Antiproliferative effect, MTS cell viability assay; conditions: 72 h, mantle cell lymphoma cell (Mino or JeKo-1), MTS assay, read-out: IC50 (anti-proliferation)
Experimental: Antiproliferative effect of the exemplary compounds was assessed in B-cell malignancy models.
To assess the effect of the exemplary compounds on cell viability in B-cell malignancy models by degradation of CDK4/6 proteins, Mino cells were treated with varying concentrations of exemplary compounds (0, 0.0001, 0.001, 0.01, 0.1, 1 μM) or positive control (palbociclib and abemaciclib). Under these conditions, cell viability was determined by an MTS assay. Cytotoxicity was assayed by the determination of reduced tetrazolium (formazan) created by metabolically active cells as detected at 490 nanometers (nm) absorbance using a microplate reader (BMG Labtech, Cary, NC, USA).
The exemplary compounds attenuated the viability of Mino cells in a concentration-dependent manner at 72 h post treatment. Results are shown in Table 1 and FIGS. 2-15 for each exemplary compound.

T1 sequence (P11802 whole entry): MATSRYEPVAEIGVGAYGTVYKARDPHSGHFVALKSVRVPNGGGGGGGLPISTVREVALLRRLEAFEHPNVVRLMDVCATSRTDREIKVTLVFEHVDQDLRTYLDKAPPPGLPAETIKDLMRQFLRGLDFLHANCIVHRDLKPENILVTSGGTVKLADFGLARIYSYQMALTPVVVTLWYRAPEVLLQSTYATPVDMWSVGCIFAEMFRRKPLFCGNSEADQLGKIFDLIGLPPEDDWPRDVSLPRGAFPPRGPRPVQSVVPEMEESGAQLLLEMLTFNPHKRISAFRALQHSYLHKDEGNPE
T2 sequence (Q00534 whole entry): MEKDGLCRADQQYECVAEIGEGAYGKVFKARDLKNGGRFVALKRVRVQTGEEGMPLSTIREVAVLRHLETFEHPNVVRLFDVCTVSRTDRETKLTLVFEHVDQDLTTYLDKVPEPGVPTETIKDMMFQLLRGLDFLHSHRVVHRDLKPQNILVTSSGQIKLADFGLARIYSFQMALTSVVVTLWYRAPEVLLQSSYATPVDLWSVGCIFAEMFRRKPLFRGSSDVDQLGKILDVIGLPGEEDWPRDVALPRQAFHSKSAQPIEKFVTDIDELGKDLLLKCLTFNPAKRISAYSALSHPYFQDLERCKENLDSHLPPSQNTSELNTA

| SMILES | DC50 (CDK4) | Dmax (CDK4) | DC50 (CDK6) | Dmax (CDK6) | IC50 [1] |
| --- | --- | --- | --- | --- | --- |
| CC(=O)c1c(C)c2cnc(Nc3ccc(N4CCN(CC5CCN(C(=O)N6CCC(c7ccc8c(c7)C(=O)N(C7CCC(=O)NC7=O)C8=O)CC6)CC5)CC4)cn3)nc2n(C2CCCC2)c1=O (centres unmarked) [Compound 33, 5-(1-(4-((4-(6-((6-acetyl-8-cyclopentyl-5-methyl-7-oxo-7,8-dihydropyrido[2,3-d]pyrimidin-2-yl)amino)pyridin-3-yl)piperazin-1-yl)methyl)piperidine-1-carbonyl)piperidin-4-yl)-2-(2,6-dioxopiperidin-3-yl)isoindoline-1,3-dione] | > 200 nM | > 60% | > 200 nM | > 50% | 50 to 200 nM |
| CC(=O)c1c(C)c2cnc(Nc3ccc(N4CCN(CC5CN(c6ccc(NC7CCC(=O)NC7=O)cc6)C5)CC4)cn3)nc2n(C2CCCC2)c1=O (centres unmarked) [Compound 120, 3-((4-(3-((4-(6-((6-acetyl-8-cyclopentyl-5-methyl-7-oxo-7,8-dihydropyrido[2,3-d]pyrimidin-2-yl)amino)pyridin-3-yl)piperazin-1-yl)methyl)azetidin-1-yl)phenyl)amino) piperidine-2,6-dione] | < 50 nM | > 80% | 50 to 200 nM | > 80% | < 50 nM |
| CC(=O)c1c(C)c2cnc(Nc3ccc(N4CCN(C5CCN(C(=O)N6CCC(c7ccc8c(c7)C(=O)N(C7CCC(=O)NC7=O)C8=O)CC6)CC5)CC4)cn3)nc2n(C2CCCC2)c1=O (centres unmarked) [Compound 37, 5-(1-(4-(4-(6-((6-acetyl-8-cyclopentyl-5-methyl-7-oxo-7,8-dihydropyrido[2,3-d]pyrimidin-2-yl)amino)pyridin-3-yl)piperazin-1-yl)piperidine-1-carbonyl)piperidin-4-yl)-2-(2,6-dioxopiperidin-3-yl)isoindoline-1,3-dione] | > 200 nM | > 50% | > 200 nM | > 50% | > 200 nM |
| CC(=O)c1c(C)c2cnc(Nc3ccc(N4CCN(CCCNc5cccc6c5C(=O)N(C5CCC(=O)NC5=O)C6=O)CC4)cn3)nc2n(C2CCCC2)c1=O (centres unmarked) [Compound 62, 4-((3-(4-(6-((6-acetyl-8-cyclopentyl-5-methyl-7-oxo-7,8-dihydropyrido[2,3-d]pyrimidin-2-yl)amino)pyridin-3-yl)piperazin-1-yl)propyl)amino)-2-(2,6-dioxopiperidin-3-yl) isoindoline-1,3-dione] | 50 to 200 nM | > 80% | 50 to 200 nM | > 80% | < 50 nM |
| CC(=O)c1c(C)c2cnc(Nc3ccc(N4CCN(C5CN(c6ccc(C(=O)NC7CCC(=O)NC7=O)cc6)C5)CC4)cn3)nc2n(C2CCCC2)c1=O (centres unmarked) [Compound 102, 4-(3-(4-(6-((6-acetyl-8-cyclopentyl-5-methyl-7-oxo-7,8-dihydropyrido[2,3-d]pyrimidin-2-yl)amino)pyridin-3-yl)piperazin-1-yl)azetidin-1-yl)-N-(2,6-dioxopiperidin-3-yl)benzamide] | 50 to 200 nM | > 80% | 50 to 200 nM | > 60% | 50 to 200 nM |
| CC(=O)c1c(C)c2cnc(Nc3ccc(N4CCN(CCC5CCN(C(=O)Nc6ccc7c(c6)CN(C6CCC(=O)NC6=O)C7=O)CC5)CC4)cn3)nc2n(C2CCCC2)c1=O (centres unmarked) [Compound 46, 4-(2-(4-(6-((6-acetyl-8-cyclopentyl-5-methyl-7-oxo-7,8-dihydropyrido[2,3-d]pyrimidin-2-yl)amino)pyridin-3-yl)piperazin-1-yl)ethyl)-N-(2-(2,6-dioxopiperidin-3-yl)-1-oxoisoindolin-5-yl)piperidine-1-carboxamide] | > 200 nM | > 60% | 50 to 200 nM | > 60% | 50 to 200 nM |
| CC(=O)c1c(C)c2cnc(Nc3ccc(N4CCN(CC5CN(c6cccc7c6C(=O)N(C6CCC(=O)NC6=O)C7=O)C5)CC4)cn3)nc2n(C2CCCC2)c1=O (centres unmarked) [Compound 81, 4-(3-((4-(6-((6-acetyl-8-cyclopentyl-5-methyl-7-oxo-7,8-dihydropyrido[2,3-d]pyrimidin-2-yl)amino)pyridin-3-yl)piperazin-1-yl)methyl)azetidin-1-yl)-2-(2,6-dioxopiperidin-3-yl) isoindoline-1,3-dione] | 50 to 200 nM | > 80% | 50 to 200 nM | > 80% | < 50 nM |
| Cc1nc2c(F)cc(-c3nc(Nc4ccc(CC5CCN(C(=O)C6CCN(c7ccc8c(c7)CN(C7CCC(=O)NC7=O)C8=O)CC6)CC5)cn4)ncc3F)cc2n1C(C)C (centres unmarked) [Compound 162, 3-(5-(4-(4-((6-((5-fluoro-4-(4-fluoro-1-isopropyl-2-methyl-1H-benzo[d]imnidazol-6-yl)pyrimidin-2-yl)amino)pyridin-3-yl)methyl)piperidine-1-carbonyl)piperidin-1-yl)-1-oxoisoindolin-2-yl)piperidine-2,6-dione] | 50 to 200 nM | > 60% | > 200 nM | > 60% | 50 to 200 nM |
| Cc1nc2c(F)cc(-c3nc(Nc4ccc(CN5CCN(C6CN(c7cccc8c7C(=O)N(C7CCC(=O)NC7=O)C8=O)C6)CC5)cn4)ncc3F)cc2n1C(C)C (centres unmarked) [Compound 98, 2-(2,6-dioxopiperidin-3-yl)-4-(3-(4-((6-((5-fluoro-4-(4-fluoro-1 isopropyl-2-methyl-1H-benzo[d]imidazol-6-yl)pyrimidin-2-yl)amino)pyridin-3-yl)methyl)piperazin-1-yl)azetidin-1-yl)isoindoline-1,3-dione] | 50 to 200 nM | > 80% | 50 to 200 nM | > 80% | 50 to 200 nM |
| CC(=O)c1c(C)c2cnc(Nc3ccc(N4CCN(CC5CCN(C(=O)N6CCC(N7CCN(c8ccc9c(c8)C(=O)N(C8CCC(=O)NC8=O)C9=O)CC7)CC6)CC5)CC4)cn3)nc2n(C2CCCC2)c1=O (centres unmarked) [Compound 89, 5-(4-(1-(4-((4-(6-((6-acetyl-8-cyclopentyl-5-methyl-7-oxo-7,8-dihydropyrido[2,3-d]pyrimidin-2-yl)amino)pyridin-3-yl)piperazin-1-yl)methyl)piperidine-1-carbonyl)piperidin-4-yl)piperazin-1-yl)-2-(2,6-dioxopiperidin-3-yl)isoindoline-1,3-dione] | 50 to 200 nM | > 60% | > 200 nM | > 60% | 50 to 200 nM |
| CC(=O)c1c(C)c2cnc(Nc3ccc(N4CCN(C(=O)N5CCN(C6CCN(c7ccc8c(c7)C(=O)N(C7CCC(=O)NC7=O)C8=O)CC6)CC5)CC4)cn3)nc2n(C2CCCC2)c1=O (centres unmarked) [Compound 5, 5-(4-(4-(4-(6-((6-acetyl-8-cyclopentyl-5-methyl-7-oxo-7,8-dihydropyrido[2,3-d]pyrimidin-2-yl)amino)pyridin-3-yl)piperazine-1-carbonyl)piperazin-1-yl)piperidin-1-yl)-2-(2,6-dioxopiperidin-3-yl)isoindoline-1,3-dione] | > 200 nM | > 60% | > 200 nM | > 60% | 50 to 200 nM |
| CC(=O)c1c(C)c2cnc(Nc3ccc(N4CCN(C(=O)N5CCN(CCC6CCN(c7ccc8c(c7)C(=O)N(C7CCC(=O)NC7=O)C8=O)CC6)CC5)CC4)cn3)nc2n(C2CCCC2)c1=O (centres unmarked) [Compound 23, 5-(4-(2-(4-(4-(6-((6-acetyl-8-cyclopentyl-5-methyl-7-oxo-7,8-dihydropyrido[2,3-d]pyrimidin-2-yl)amino)pyridin-3-yl)piperazine-1-carbonyl)piperazin-1-yl)ethyl)piperidin-1-yl)-2-(2,6-dioxopiperidin-3-yl) isoindoline-1,3-dione] | > 200 nM | > 60% | > 200 nM | > 60% | > 200 nM |
| CC(=O)c1c(C)c2cnc(Nc3ccc(N4CCN(CCN5CCN(C(=O)Nc6ccc7c(c6)CN(C6CCC(=O)NC6=O)C7=O)CC5)CC4)cn3)nc2n(C2CCCC2)c1=O (centres unmarked) [Compound 44] | 50 to 200 nM | > 60% | 50 to 200 nM | > 60% | 50 to 200 nM |
| CC(=O)c1c(C)c2cnc(Nc3ccc(C4CCN(C(=O)C5CN(c6ccc7c(c6)CN(C6CCC(=O)NC6=O)C7=O)C5)CC4)cn3)nc2n(C2CCCC2)c1=O (centres unmarked) [Compound 130, 3-(5-(3-(4-(6-((6-acetyl-8-cyclopentyl-5-methyl-7-oxo-7,8-dihydropyrido[2,3-d]pyrimidin-2-yl)amino)pyridin-3-yl)piperidine-1-carbonyl)azetidin-1-yl)-1-oxoisoindolin-2-yl)piperidine-2,6-dione] | 50 to 200 nM | > 80% | < 50 nM | > 60% | < 50 nM |
| CC(=O)c1c(C)c2cnc(Nc3ccc(N4CCN(CCCN(C)c5ccc6c(c5)CN(C5CCC(=O)NC5=O)C6=O)CC4)cn3)nc2n(C2CCCC2)c1=O (centres unmarked) [Compound 58, 3-(5-((3-(4-(6-((6-acetyl-8-cyclopentyl-5-methyl-7-oxo-7,8-dihydropyrido[2,3-d]pyrimidin-2-yl)amino)pyridin-3-yl)piperazin-1-yl)propyl) (methyl)amino)-1-oxoisoindolin-2-yl) piperidine-2,6-dione] | 50 to 200 nM | > 60% | 50 to 200 nM | > 60% | 50 to 200 nM |
| CC(=O)c1c(C)c2cnc(Nc3ccc(N4CCN(CCCNc5cc6c(cc5F)C(=O)N(C5CCC(=O)NC5=O)C6=O)CC4)cn3)nc2n(C2CCCC2)c1=O (centres unmarked) [Compound 51, 5-((3-(4-(6-((6-acetyl-8-cyclopentyl-5-methyl-7-oxo-7,8-dihydropyrido[2,3-d]pyrimidin-2-yl)amino)pyridin-3-yl)piperazin-1-yl)propyl)amino)-2-(2,6-dioxopiperidin-3-yl)-6-fluoroisoindoline-1,3-dione] | 50 to 200 nM | > 80% | 50 to 200 nM | > 80% | < 50 nM |
